Test system: α2β3γ1 GABAAR co-expressed with human UT
Assay: Patch-clamp of Iso-evoked current in CHO-UT expressing α2β3γ1 GABAAR
Assay type: cell-based
Conditions: hUII 10^−13 to 10^−7 M; Iso 10^−4 M, 2 s; −60 mV
Experimental: CHO-K1 cell lines were obtained from American Type Culture Collection (Manassas, VA, USA). The human UT stable CHO (CHO-UT) was generously provided by Dr Christophe Dubessy (Inserm, Rouen University, France) et generated by CHO electroporation with 20 µg pIRES-neo2-UT DNA and 500 µg sterile sonicated salmon sperm DNA using the EasyJect One electroporation system (Equibio, Angleur, Belgium), followed by repetitive rounds of limiting dilution of cells in G-418 (400 µg/ml) for selection. Normal or stable CHO was grown in Ham-F12 medium supplemented with 10% FBS, 1% antibiotic-antimicotic solution and 2 mM glutamine, at 37°C in a humidified incubator with an atmosphere of 5% CO2. The stable CHO-UT medium was supplemented with the antibiotic G-418 (40 µg/ml).
For transfection, cells were trypsinized (0.05%), triturated in HamF-12 containing 10% FBS media, pelleted by centrifugation, resuspended in 100 µl solution V for nucleofection by an Amaxa Nucleofector Device (Köln, Germany; set to program U-016). Experiments were performed on normal CHO or on the stable CHO-UT cells and transiently transfected with combinations of cDNA encoding α2β3γ2, α2β3γ1, α2β1γ2, α2β3γ1, α2β3, β3γ2 (4 µg of cDNA total/transfection) GABAAR subunits. Cells were seeded on 14-mm poly-L-lysine-coated glass bottom insert dishes at 5×10^5 cells in a volume of 0.5 ml/dish. […]

Sequence: ETPDCFWKYCV (disulfide) [hUII, human urotensin II, synthesized by solid phase methodology]
- Inhibitory effect on Iso-evoked current, α2β3γ1: less effective

— PMC3341351, “Down-Regulation of GABAA Receptor via Promiscuity with the Vasoactive Peptide Urotensin II Receptor. Potential Involvement in Astrocyte Plasticity” (PLoS ONE, 2012)
